The source of these data is patent US10150792B2, “Bismuth-containing compounds, coordination polymers, methods for modulating pharmacokinetic properties of biologically active agents, and methods for treating patients” (priority 2010, dated 2018).

For data set [1] the following is noted: high orally administered doses; cited from earlier work.
Another data set can be described thus: in vivo. The note with it: rat. On the procedure:
Method for Rat Pharmacokinetic Studies: Rat “feed and bleed” studies were performed with LD and synthetically prepared LD:metal complexes wherein key PK parameters, such as maximum concentration (Cmax), AUC, and time of maximum concentration (tmax) were measured vis-à-vis the reference drug, LD.
In each experiment, male Sprague-Dawley rats with jugular vein catheters (250-300 g; n=5-10) are used. These rats were obtained from a commercial source (Harlan Laboratory Animals, Dublin, Va.) and housed individually. Water was available ad libitum. Rats were fed certified rodent chow ad libitum. After arrival, the health of rats was assessed and animals were placed in quarantine for a minimum of five days during which time general health was assessed. At the end of quarantine, rats were moved to permanent animal quarters for access and study.
All studies employed oral dosing using size 9 rodent gelatin capsules from Torpac (Fairfield, N.J.). After fasting overnight, the rats are dosed at time zero with periodic blood sampling from the catheter (5-8 time points between 0 and 24 hours). Blood (200-300 μL) is drawn and collected in heparinized tubes. Plasma is separated by centrifugation and stored at −20° C. until work-up. Plasma samples are then treated according to developed methodology (e.g., FEBS Lett., 2002, 524 (1-3), 199-203), and analyzed (LC/MS/MS) for drug concentrations. Average plasma values (±SEM) for each time are calculated and PK parameters, including Cmax, tmax, and total amount absorbed (AUC0-6h), are determined using standard software.
Each study employs a crossover design whereby the LD and a metal:LD complex are tested in the same rats with a 5-day wash-out period separating the two experiments.

In the case of `O=C(O)C(Cl)Cl` [DCA, dichloroacetate], the Fraction absorbed in data set [1] is listed as 100%.
As for tris(LD)bismuth oxide [Bi(O)(dopa)3], the “Course of LD plasma levels” value in the data set “in vivo” (FIG. 13, oral, equivalent to 20 mg/kg LD + carbidopa 10 mg/kg, sampling to 3 hours) is given as “remained at or near their peak levels for the duration of the study”. Moreover, in “in vivo” (FIGS. 13 and 14, oral, equivalent to 20 mg/kg LD + carbidopa 10 mg/kg), the “LD plasma level at 3 hours” value is recorded as 10 nmol/mL.
Broadly, the Cmax is the peak of the concentration-time curve. What is called Tmax is the time at which the peak concentration occurs. Molecule `N[C@@H](Cc1ccc(O)c(O)c1)C(=O)O` [LD, levodopa, reference compound] displayed a Cmax in “in vivo” (male, Sprague-Dawley, in vivo, po) of 17 µM. In “in vivo” (male, Sprague-Dawley, in vivo, po, 20 mg/kg), the time of peak concentration (Tmax) is 20 min.
